Measurements as given in ChEMBL document CHEMBL1821672, “Indolin-2-one p38α inhibitors II: Lead optimisation” (Bioorg Med Chem Lett, 2011).
In brackets after ≈: the same amount, converted by molar mass.

What was measured:
Caco-2 [1] = assay: (§1) Apparent permeability from apical to basolateral side of the human Caco2 cells; format: ADME, cell-based
[2] = Solubility in aqueous media at pH 7.4; format: physicochemical
[3] = AUC (0 to infinity) in rat at 10 mg/kg, po; format: ADME, organism-based; parameters: time infinity, dose 10 mg/kg, route oral; conditions: plasma
Caco-2 [4] = assay: (§2) Apparent permeability from basolateral to apical side of human Caco2 cells; format: ADME, cell-based
[5] = Metabolic stability in rat hepatic microsomes assessed as compound turnover at 5 uM in absence of NADPH after 30 mins; format: ADME; conditions: liver microsomes, read-out: Activity
[6] = Mean residence time in rat at 1 mg/kg, iv; format: ADME, organism-based; parameters: dose 1 mg/kg, route intravenous; conditions: in vivo
[7] = Metabolic stability in rat hepatic microsomes assessed as compound turnover at 5 uM in presence of NADPH after 30 mins; format: ADME; conditions: liver microsomes, read-out: Activity
[8] = Metabolic stability in human hepatic microsomes assessed as compound turnover at 5 uM in presence of NADPH after 30 mins; format: ADME; conditions: liver microsomes, read-out: Activity
[9] = Metabolic stability in human hepatic microsomes assessed as compound turnover at 5 uM in absence of NADPH after 30 mins; format: ADME; conditions: liver microsomes, read-out: Activity
[10] = target: T1, Mitogen-activated protein kinase 14 (Homo sapiens, UniProt Q16539); assay: Inhibition of human p38alpha using biotinylated ATF2 substrate by FRET assay
T1 sequence (Q16539 whole entry): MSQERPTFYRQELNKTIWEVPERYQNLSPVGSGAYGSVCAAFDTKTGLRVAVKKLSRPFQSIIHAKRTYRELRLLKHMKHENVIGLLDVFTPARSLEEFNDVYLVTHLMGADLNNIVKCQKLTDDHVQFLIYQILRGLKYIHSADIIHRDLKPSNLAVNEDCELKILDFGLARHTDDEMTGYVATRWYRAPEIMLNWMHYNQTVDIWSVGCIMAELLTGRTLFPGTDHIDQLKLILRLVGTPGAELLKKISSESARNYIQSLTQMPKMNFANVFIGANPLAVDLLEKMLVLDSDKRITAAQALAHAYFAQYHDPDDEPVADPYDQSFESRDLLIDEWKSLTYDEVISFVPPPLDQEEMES

[11] = target: T1, Mitogen-activated protein kinase 14; assay: Inhibition of p38alpha in human whole blood assessed as reduction in TNF-alpha production by ELISA
Rattus norvegicus = species: Rattus norvegicus; assay: Hepatic blood flow in rat; format: ADME, organism-based, Liver
[12] = Cytotoxicity against CHO cells at 200 uM; format: cell-based, Cricetulus griseus; conditions: chinese hamster, read-out: INH
[13] = Volume of distribution at steady state in rat at 1 mg/kg, iv; format: ADME, organism-based; parameters: dose 1 mg/kg, route intravenous; conditions: in vivo, read-out: Vdss
[14] = AUC (0 to infinity) in rat at 1 mg/kg, iv; format: ADME, organism-based; parameters: time infinity, dose 1 mg/kg, route intravenous; conditions: plasma
[15] = Cmax in rat at 10 mg/kg, po; format: ADME, organism-based; parameters: dose 10 mg/kg, route oral; conditions: in vivo
[16] = Clearance in rat at 1 mg/kg, iv; format: ADME, organism-based; parameters: dose 1 mg/kg, route intravenous; conditions: in vivo
[17] = Oral bioavailability in rat at 10 mg/kg; format: ADME, organism-based; conditions: in vivo
[18] = Cmax in rat at 1 mg/kg, iv; format: ADME, organism-based; parameters: dose 1 mg/kg, route intravenous; conditions: in vivo
[19] = Terminal half life in rat at 1 mg/kg, iv; format: ADME, organism-based; parameters: dose 1 mg/kg, route intravenous; conditions: in vivo, read-out: beta t1/2 (converted)
[20] = target: RAF proto-oncogene serine/threonine-protein kinase (Homo sapiens, UniProt P04049); assay: Inhibition of human c-RAF
RAF proto-oncogene serine/threonine-protein kinase, sequence (P04049 whole entry): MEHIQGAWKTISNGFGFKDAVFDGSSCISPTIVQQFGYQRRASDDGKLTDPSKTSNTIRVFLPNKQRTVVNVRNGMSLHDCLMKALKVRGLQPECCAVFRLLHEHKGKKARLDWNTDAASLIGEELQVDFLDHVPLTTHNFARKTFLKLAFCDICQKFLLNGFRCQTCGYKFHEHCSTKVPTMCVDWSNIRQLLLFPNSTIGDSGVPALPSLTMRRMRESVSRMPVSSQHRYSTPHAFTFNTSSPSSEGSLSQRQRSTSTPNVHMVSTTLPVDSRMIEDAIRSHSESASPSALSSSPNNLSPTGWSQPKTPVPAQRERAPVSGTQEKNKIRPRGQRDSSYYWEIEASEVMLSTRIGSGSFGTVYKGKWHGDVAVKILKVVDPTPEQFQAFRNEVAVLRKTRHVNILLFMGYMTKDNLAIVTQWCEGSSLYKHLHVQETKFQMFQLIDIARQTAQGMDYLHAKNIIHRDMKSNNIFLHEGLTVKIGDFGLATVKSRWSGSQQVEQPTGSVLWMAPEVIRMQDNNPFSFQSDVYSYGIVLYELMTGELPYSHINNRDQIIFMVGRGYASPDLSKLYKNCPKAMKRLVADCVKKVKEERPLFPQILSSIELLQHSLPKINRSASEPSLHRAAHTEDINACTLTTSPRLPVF

CHO = assay: Cytotoxicity against CHO cells; format: cell-based; conditions: Cricetulus griseus
[21] = as §1; format: ADME, cell-based; conditions: caco-2
[22] = as §2; format: ADME, cell-based; conditions: caco-2

| SMILES | Papp (Caco-2 [1]) | Papp (Caco-2 [4]) | metabolised at 0.5 h, 5 µM [5] | metabolised at 0.5 h, 5 µM [7] | metabolised at 0.5 h, 5 µM [8] | metabolised at 0.5 h, 5 µM [9] | IC50 [10] | IC50 [11] | other results |
| --- | --- | --- | --- | --- | --- | --- | --- | --- | --- |
| Cc1ccc(C(=O)NC2CC2)cc1-c1ccc2c(c1)NC(=O)C21CCCC1 | permeable | permeable | < 5% | 44% | – | – | – | – | solubility [2]: 3 µg/mL (≈ 8.32 µM); AUC(0-inf) [3]: 2640 ng·h/mL; MRT [6]: 2.1 h |
| Cc1ccc(C(=O)NC2CC2)cc1-c1ccc2c(c1)NC(=O)C21CCCCC1 | permeable | permeable | < 5% | 47% | 57% | 29% | – | – | – |
| Cc1ccc(C(=O)NC2CC2)cc1-c1ccc2c(c1)NC(=O)C2(CCO)CCO | permeable | permeable | – | – | – | – | 4570 nM | – | – |
| Cc1ccc(C(=O)NC2CC2)cc1-c1ccc2c(c1)NC(=O)C21CCN(C)CC1 | permeable | permeable | – | 13% | 15% | 17% | – | 9.6 nM | QH (Rattus norvegicus): > 85%; cytotoxicity at 200 µM [12]: 40%; Vd [13]: 19.1 L/kg; AUC(0-inf) [14]: 226 ng·h/mL; AUC(0-inf) [3]: 786 ng·h/mL; MRT [6]: 4.3 h; Cmax [15]: 134 ng/mL; clearance [16]: 73.3 mL/min/kg; bioavailability [17]: 35%; Cmax [18]: 133 ng/mL; half-life [19]: 5.1 h |
| Cc1c(F)cc(C(=O)NC2CC2)cc1-c1ccc2c(c1)NC(=O)C21CCN(S(C)(=O)=O)CC1 | permeable | permeable | < 5% | 18% | 36% | 53% | – | 20 nM | – |
| Cc1ccc(C(=O)NC2CC2)cc1-c1ccc2c(c1)NC(=O)C21CCOCC1 | permeable | permeable | < 5% | 16% | 34% | 40% | 1.65 nM | 14 nM | Vd [13]: 0.8 L/kg; AUC(0-inf) [14]: 2770 ng·h/mL; AUC(0-inf) [3]: 10400 ng·h/mL; MRT [6]: 2.2 h; Cmax [15]: 1310 ng/mL; clearance [16]: 6.67 mL/min/kg; bioavailability [17]: 40%; Cmax [18]: 1530 ng/mL; half-life [19]: 2.7 h; IC50 [20]: 120 nM |
| Cc1ccc(C(=O)Nc2ccon2)cc1-c1ccc2c(c1)NC(=O)C21CCOCC1 | permeable | permeable | < 5% | 23% | 74% | 72% | 0.09 nM | 7 nM | – |
| Cc1ccc(C(=O)NC2CC2)cc1-c1ccc2c(c1)NC(=O)C21CCSCC1 | permeable | permeable | < 5% | 97% | 72% | 41% | 0.08 nM | 16 nM | IC50 (CHO): 16000 nM |
| Cc1ccc(C(=O)NC2CC2)cc1-c1ccc2c(c1)NC(=O)C21CCS(=O)(=O)CC1 | – | – | < 5% | 0% | 5% | 11% | – | 75 nM | Papp A→B [21]: 4 ×10⁻⁶ cm/s; Papp B→A [22]: 25 ×10⁻⁶ cm/s |
| Cc1ccc(C(=O)NC2CC2)cc1-c1ccc2c(c1)NC(=O)[C@]21CC[C@@H](O)CC1 | permeable | permeable | < 5% | 2% | 65% | 81% | 1.4 nM | 5 nM | – |
| Cc1ccc(C(=O)NC2CC2)cc1-c1ccc2c(c1)NC(=O)[C@]21CC[C@H](O)CC1 | permeable | permeable | 7% | 15% | 40% | 61% | 1.4 nM | 11 nM | – |
| Cc1ccc(C(=O)NC2CC2)cc1-c1ccc2c(c1)NC(=O)C21CCC(F)(F)CC1 | permeable | permeable | < 5% | < 5% | < 5% | < 5% | – | 10 nM | Vd [13]: 4.2 L/kg; AUC(0-inf) [14]: 5020 ng·h/mL; IC50 (CHO): 7000 nM; MRT [6]: 21 h; clearance [16]: 3.33 mL/min/kg; Cmax [18]: 436 ng/mL; half-life [19]: 14.4 h |
| Cc1ccc(C(=O)Nc2ccon2)cc1-c1ccc2c(c1)NC(=O)C21CCC(F)(F)CC1 | permeable | permeable | < 5% | 14% | 17% | 17% | 0.9 nM | 4.9 nM | – |
| Cc1ncc(C(=O)NC2CC2)cc1-c1ccc2c(c1)NC(=O)C21CCCC1 | permeable | permeable | < 5% | 30% | 29% | 11% | 7.4 nM | 150 nM | cytotoxicity at 200 µM [12]: 68% |
| Cc1ccc(C(=O)NC2CC2)cc1-c1ccc2c(n1)NC(=O)C21CCCC1 | permeable | permeable | 11% | 33% | 19% | 16% | – | 128 nM | IC50 (CHO): 58000 nM |
| Cc1ccc(C(=O)NC2CC2)cc1-c1cc2c(cn1)C1(CCCC1)C(=O)N2 | permeable | permeable | < 5% | 21% | 10% | < 5% | – | 64 nM | cytotoxicity at 200 µM [12]: 29% |
| Cc1ccc(C(=O)NC2CC2)cc1-c1cnc2c(c1)NC(=O)C21CCCC1 | permeable | permeable | < 5% | 16% | 19% | 10% | 1.8 nM | 69 nM | cytotoxicity at 200 µM [12]: 62%; IC50 [20]: 105 nM |
| Cc1ccc(C(=O)NC2CC2)cc1-c1cnc2c(c1)NC(=O)C21CCOCC1 | permeable | permeable | 5% | 0% | 8% | 16% | – | 86 nM | cytotoxicity at 200 µM [12]: 36% |
| Cc1ccc(C(=O)NC2CC2)cc1-c1cnc2c(c1)NC(=O)C21CCC(F)(F)CC1 | permeable | permeable | < 5% | 19% | 1% | < 5% | 2.3 nM | 188 nM | IC50 (CHO): 49000 nM |
| Cc1ccc(C(=O)NC2CC2)cc1-c1cnc2c(c1)NC(=O)C2(C)C | permeable | permeable | < 5% | 2% | 8% | 7% | – | 544 nM | – |
| Cc1ccc(C(=O)NC2CC2)cc1-c1ncc2c(n1)NC(=O)C21CCCC1 | permeable | permeable | – | – | – | – | – | 1100 nM | – |
| Cc1ccc(C(=O)NC2CC2)cc1-c1cnc2c(c1)NC(=O)C21CCCC1.Cl | – | – | – | – | – | – | – | – | Vd [13]: 1.2 L/kg; AUC(0-inf) [14]: 1850 ng·h/mL; AUC(0-inf) [3]: 12000 ng·h/mL; MRT [6]: 2.2 h; Cmax [15]: 4620 ng/mL; clearance [16]: 10 mL/min/kg; bioavailability [17]: 65%; Cmax [18]: 1240 ng/mL; half-life [19]: 3.9 h |
